Results as given in the supplement of paper PMC10307832.

Tests used:
Assay in all cases: relative viability (nuclei count vs DMSO), 5 days (fraction); higher = more cells survive
[1] = compound: C1=CC=C2C(=C1)N=C(S2)C(C#N)C3=NC(=NC=C3)NCCC4=CN=CC=C4 + Cc1cc(Nc2cc(N3CCN(C)CC3)nc(Sc3ccc(NC(=O)C4CC4)cc3)n2)n[nH]1 [Tozasertib] (partner 0.1 µM)
How it was run: (§1)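 Medians of duplicate plates are given as relative viability. That measure is the nuclei count in treated wells divided by the count in vehicle wells. Counts were taken on 4× images of lung cancer cell lines in 1536-well plates, 5 days after pin-tool dosing the day after seeding with one drug alone or a fixed anchor-drug dose plus five library-drug doses (not always all listed) in √10 steps.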

[2] = compound: C1=CC=C2C(=C1)N=C(S2)C(C#N)C3=NC(=NC=C3)NCCC4=CN=CC=C4 + Nc1ncn([C@H]2C[C@H](O)[C@@H](CO)O2)c(=O)n1 [Decitabine] (partner 2 µM)
How it was run: as §1

[3] = compound: COc1cc(N2CCC(N3CCN(C)CC3)CC2)ccc1Nc1ncc(Cl)c(Nc2ccccc2S(=O)(=O)C(C)C)n1 [NVP-TAE684] + Nc1ncn([C@H]2C[C@H](O)[C@@H](CO)O2)c(=O)n1 [Decitabine] (partner 2 µM)
How it was run: as §1

[4] = compound: COc1cc2/c(=N/c3ccc(Br)cc3F)nc[nH]c2cc1OCC1CCN(C)CC1 [Vandetanib] + CC(=O)Nc1cccc(-n2c(=O)n(C3CC3)c(=O)c3c(Nc4ccc(I)cc4F)n(C)c(=O)c(C)c32)c1 [Trametinib] (partner 0.02 µM)
How it was run: as §1

| Cell Line | relative viability ([1]; first compound 0.005 µM) | relative viability ([1]; first compound 0.01581 µM) | relative viability ([1]; first compound 0.05 µM) | relative viability ([1]; first compound 0.1581 µM) | relative viability ([1]; first compound 0.5 µM) | relative viability ([2]; first compound 0.005 µM) | relative viability ([2]; first compound 0.05 µM) | relative viability ([2]; first compound 0.1581 µM) | relative viability ([2]; first compound 0.5 µM) | relative viability ([3]; first compound 0.2 µM) | relative viability ([3]; first compound 0.6325 µM) | relative viability ([3]; first compound 2 µM) | relative viability ([4]; first compound 0.02 µM) | relative viability ([4]; first compound 0.06325 µM) | relative viability ([4]; first compound 0.2 µM) | relative viability ([4]; first compound 0.6325 µM) | relative viability ([4]; first compound 2 µM) | relative viability ([2]; first compound 0.01581 µM) |
| --- | --- | --- | --- | --- | --- | --- | --- | --- | --- | --- | --- | --- | --- | --- | --- | --- | --- | --- |
| PC-3 [JPC-3] | 0.661 | 0.927 | 0.866 | 0.791 | 0.706 | 0.952 | 0.758 | 0.825 | 0.762 | 0.846 | 0.73 | 0.75 | 0.682 | 0.577 | 0.584 | 0.513 | 0.435 | – |
| NCI-H520 | 0.406 | 0.431 | 0.467 | 0.376 | 0.421 | 0.46 | 0.482 | 0.616 | 0.513 | 0.508 | 0.45 | 0.267 | 0.627 | 0.642 | 0.577 | 0.687 | 0.68 | 0.449 |
| A549 | – | – | – | – | – | 0.239 | 0.239 | 0.312 | 0.323 | – | 0.248 | 0.286 | – | – | – | – | – | 0.33 |
| BEN | 0.261 | 0.49 | 0.457 | 0.638 | 0.435 | 0.654 | 0.664 | 0.863 | 0.811 | – | 0.622 | 0.643 | 1.09 | 1.01 | 0.985 | 1 | 0.798 | 0.666 |
| COR-L 105 | 0.324 | 0.338 | 0.315 | 0.339 | 0.351 | 0.597 | 0.638 | 0.637 | 0.642 | 0.681 | 0.701 | 0.429 | 0.42 | 0.405 | 0.427 | 0.383 | 0.416 | 0.628 |
| NCI-H1734 | – | 0.247 | 0.248 | 0.264 | 0.267 | 0.453 | 0.522 | 0.495 | 0.488 | 0.466 | 0.347 | 0.432 | 0.639 | 0.694 | 0.667 | 0.673 | 0.709 | 0.49 |
| LOU-NH91 | 0.652 | 0.606 | 0.599 | 0.689 | 0.59 | 0.85 | 0.765 | 0.818 | 0.8 | 0.801 | 0.782 | 0.645 | 0.775 | 0.731 | 0.725 | 0.716 | 0.673 | 0.822 |
| NCI-H2405 | 0.714 | 0.72 | 0.672 | 0.701 | 0.616 | 0.658 | 0.737 | 0.689 | 0.725 | 0.684 | 0.683 | 0.397 | 0.63 | 0.458 | 0.714 | 0.653 | 0.616 | 0.771 |
| HCC-15 | 0.343 | 0.411 | 0.316 | 0.315 | 0.273 | 0.568 | 0.644 | 0.66 | 0.564 | 0.582 | 0.524 | 0.484 | 0.386 | 0.362 | 0.37 | 0.395 | 0.369 | 0.608 |
| HCC-44 | 0.949 | – | 0.883 | 0.927 | 0.548 | 0.956 | 0.971 | 0.978 | 1.01 | 0.946 | 0.955 | 0.876 | 1.1 | 1.04 | 1.06 | 1.15 | 1.06 | 0.933 |
| NCI-H1792 | – | – | – | – | – | – | 0.638 | 0.675 | 0.388 | 0.359 | 0.558 | 0.309 | 0.407 | 0.413 | 0.463 | 0.502 | 0.354 | 0.736 |
| NCI-H2347 | 0.758 | 0.533 | 0.574 | 0.599 | 0.412 | 0.638 | 0.556 | 0.683 | 0.654 | 0.602 | 0.679 | 0.571 | 0.28 | 0.278 | 0.254 | 0.283 | 0.28 | 0.634 |
| SW 900 | 0.452 | 0.489 | 0.5 | 0.489 | 0.362 | 0.393 | 0.401 | 0.557 | 0.391 | 0.433 | 0.444 | 0.421 | 0.654 | 0.71 | – | 0.673 | 0.549 | 0.342 |
| RERF-LC-KJ | 0.535 | 0.549 | 0.507 | 0.472 | 0.413 | 0.621 | 0.682 | 0.785 | 0.606 | 0.689 | 0.574 | 0.3 | 0.808 | 0.933 | 0.528 | 0.831 | 0.688 | 0.773 |
| NCI-H522 | 0.458 | 0.553 | 0.501 | 0.573 | 0.537 | 0.718 | 0.607 | 0.639 | 0.66 | 0.604 | 0.731 | 0.66 | 0.87 | 0.818 | 0.856 | 0.791 | 0.771 | 0.651 |
| NCI-H1666 | 0.642 | 0.615 | 0.541 | 0.651 | 0.617 | 0.72 | 0.8 | 0.738 | 0.798 | 0.71 | 0.732 | 0.597 | 0.844 | 0.817 | 0.879 | 0.764 | 0.815 | 0.696 |
